Among the data in US9115101B2 (Genentech, Inc., priority 2012, dated 2015) are IC50 values, retold here.

For the experiment, the target named is T1, RORc ligand binding domain (Homo sapiens, UniProt P51449).
T1 construct: host or cells: E. coli
T1 sequence (P51449 269-508 limits assumed): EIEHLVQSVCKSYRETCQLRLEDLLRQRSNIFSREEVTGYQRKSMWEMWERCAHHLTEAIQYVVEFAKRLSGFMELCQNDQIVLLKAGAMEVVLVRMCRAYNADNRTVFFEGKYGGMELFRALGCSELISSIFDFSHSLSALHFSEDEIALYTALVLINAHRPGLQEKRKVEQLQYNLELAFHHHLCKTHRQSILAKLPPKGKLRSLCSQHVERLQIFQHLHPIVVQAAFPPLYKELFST
Nature of the experiment: In Vitro RORc Ligand Binding Assay (25-[3H]hydroxycholesterol radioligand filtration). Conditions: read-out: RORc IC50.

A word on the IC50: it is the concentration needed to halve the response being measured.

For `CC(=O)N1CCN(c2ccc(CN3[C@@H](C)CCC(c4ccccc4)S3(=O)=O)c(F)c2)[C@@H](C(N)=O)C1` (stereo partly drawn) [Example 433, (R)-4-Acetyl-1-[3-fluoro-4-((3S)-methyl-1,1-dioxo-6-phenyl-[1,2]thiazinan-2-ylmethyl)-phenyl]-piperazine-2-carboxylic acid amide], the IC50 was 228 nM. In the case of `CC(=O)N1CCN(c2ccc(CN3[C@@H](C)CCC(c4ccccc4)S3(=O)=O)c(F)c2)[C@@H](C(=O)O)C1` (stereo partly drawn) [Example 434, (R)-4-Acetyl-1-[3-fluoro-4-((3S)-methyl-1,1-dioxo-6-phenyl-[1,2]thiazinan-2-ylmethyl)-phenyl]-piperazine-2-carboxylic acid] it was 1130 nM. As for `CNC(=O)[C@H]1CN(C(C)=O)CCN1c1ccc(CN2[C@@H](C)CCC(c3ccccc3)S2(=O)=O)c(F)c1` (stereo partly drawn) [Example 435, (R)-4-Acetyl-1-[3-fluoro-4-((3S)-methyl-1,1-dioxo-6-phenyl-[1,2]thiazinan-2-ylmethyl)-phenyl]-piperazine-2-carboxylic acid methylamide], the 50% inhibitory concentration (IC50) was 244 nM. Under `C[C@H]1CCC(c2ccccc2)S(=O)(=O)N1Cc1ccc(OCC2CCOCC2)cc1` (stereo partly drawn) [Example 436, (3S)-Methyl-6-phenyl-2-[4-(tetrahydro-pyran-4-ylmethoxy)-benzyl]-[1,2]thiazinane 1,1-dioxide] stands 86 nM. With `CC(Oc1ccc(CN2[C@@H](C)CCC(c3ccccc3)S2(=O)=O)cc1)C1CCOCC1` (stereo partly drawn) [Example 437, (3S)-Methyl-6-phenyl-2-{4-[1-(tetrahydro-pyran-4-yl)-ethoxy]-benzyl}-[1,2]thiazinane 1,1-dioxide], the 50% inhibitory concentration (IC50) worked out at 48 nM. Turning to `C[C@H]1CCC(c2ccccc2)S(=O)(=O)N1Cc1ccc(OCCN2CCOCC2)cc1` (stereo partly drawn) [Example 438, 4-{2-[4-((3S)-Methyl-1,1-dioxo-6-phenyl-[1,2]thiazinan-2-ylmethyl)-phenoxy]-ethyl}-morpholine], the IC50 came to 665 nM. `C[C@H]1CCC(c2ccccc2)S(=O)(=O)N1Cc1ccc(OCCN2CCCC2=O)cc1` (stereo partly drawn) [Example 439, 1-{2-[4-((3S)-Methyl-1,1-dioxo-6-phenyl-[1,2]thiazinan-2-ylmethyl)-phenoxy]-ethyl}-pyrrolidin-2-one]: the half-maximal inhibitory concentration (IC50) is 325 nM. `C[C@H]1CCC(c2ccccc2)S(=O)(=O)N1Cc1ccc(N2C[C@@H]3[C@H](C2)[C@H]3n2cnnc2)cc1F` (stereo partly drawn) [Example 440, (1R,5S,6S)-3-[3-Fluoro-4-((3S)-methyl-1,1-dioxo-6-phenyl-[1,2]thiazinan-2-ylmethyl)-phenyl]-6-[1,2,4]triazol-4-yl-3-aza-bicyclo[3.1.0]hexane]: the IC50 amounted to 12 nM. In the case of `C[C@H]1CCC(c2ccccc2)S(=O)(=O)N1Cc1ccc(N2CCN(c3cnccn3)CC2)cc1F` (stereo partly drawn) [Example 441, 4-[3-Fluoro-4-((3S)-methyl-1,1-dioxo-6-phenyl-[1,2]thiazinan-2-ylmethyl)-phenyl]-3,4,5,6-tetrahydro-2H-[1,2′]bipyrazinyl] it was 171 nM. Under `C[C@H]1CCC(c2ccccc2)S(=O)(=O)N1Cc1ccc(N2CCN(c3ncncn3)CC2)cc1F` (stereo partly drawn) [Example 442, 2-{4-[3-Fluoro-4-((3S)-methyl-1,1-dioxo-6-phenyl-[1,2]thiazinan-2-ylmethyl)-phenyl]-piperazin-1-yl}-[1,3,5]triazine] stands 37 nM; under `C[C@H]1CCC(c2ccccc2)S(=O)(=O)N1Cc1ccc(NCC2CCOCC2)cc1F` (stereo partly drawn) [Example 445, [3-Fluoro-4-((3S)-methyl-1,1-dioxo-6-phenyl-[1,2]thiazinan-2-ylmethyl)-phenyl]-(tetrahydro-pyran-4-ylmethyl)-amine], 25 nM; under `C[C@H]1CCC(c2ccccc2)S(=O)(=O)N1Cc1ccc(OC2CCNC2=O)cc1` (stereo partly drawn) [Example 446, 3-[4-((3S)-Methyl-1,1-dioxo-6-phenyl-[1,2]thiazinan-2-ylmethyl)-phenoxy]-pyrrolidin-2-one], 1500 nM. In the case of `C[C@H]1CCC(c2ccccc2)S(=O)(=O)N1Cc1ccc(OC2CCOC2)cc1` (stereo partly drawn) [Example 447, (3S)-Methyl-6-phenyl-2-[4-(tetrahydro-furan-3-yloxy)-benzyl]-[1,2]thiazinane 1,1-dioxide] it was 268 nM; in that of `C[C@H]1CCC(c2ccccc2)S(=O)(=O)N1Cc1ccc(OCC2(C)COC2)cc1` (stereo partly drawn) [Example 448, (3S)-Methyl-2-[4-(3-methyl-oxetan-3-ylmethoxy)-benzyl]-6-phenyl-[1,2]thiazinane 1,1-dioxide], 656 nM; in that of `C[C@H]1CCC(c2ccccc2)S(=O)(=O)N1Cc1ccc(OC2CCC(=O)NC2)cc1` (stereo partly drawn) [Example 449, 5-[4-((3S)-Methyl-1,1-dioxo-6-phenyl-[1,2]thiazinan-2-ylmethyl)-phenoxy]-piperidin-2-one], 852 nM. `CC1CN(S(C)(=O)=O)CCC1Nc1ccc(CN2[C@@H](C)CCC(c3ccccc3)S2(=O)=O)c(F)c1` (stereo partly drawn) [Example 451, [3-Fluoro-4-((3S)-methyl-1,1-dioxo-6-phenyl-[1,2]thiazinan-2-ylmethyl)-phenyl]-(1-methanesulfonyl-3-methyl-piperidin-4-yl)-amine]: the IC50 was found to be 12 nM. In the case of `CC1CN(S(C)(=O)=O)CCC1Nc1ccc(CN2[C@@H](C)CCC(c3ccccc3)S2(=O)=O)c(F)c1` (stereo partly drawn) [Example 453, [3-Fluoro-4-((3S)-methyl-1,1-dioxo-6-phenyl-[1,2]thiazinan-2-ylmethyl)-phenyl]-(1-methanesulfonyl-3-methyl-piperidin-4-yl)-amine] it was 9 nM. In the case of `C[C@H]1CCC(c2ccccc2)S(=O)(=O)N1Cc1ccc(NC(=O)CC2CCOCC2)cc1F` (stereo partly drawn) [Example 455, N-[3-Fluoro-4-((3S)-methyl-1,1-dioxo-6-phenyl-[1,2]thiazinan-2-ylmethyl)-phenyl]-2-(tetrahydro-pyran-4-yl)-acetamide] it was 123 nM. In the case of `CCOC(=O)N1CCC(C(=O)Nc2ccc(CN3[C@@H](C)CCC(c4ccccc4)S3(=O)=O)c(F)c2)CC1` (stereo partly drawn) [Example 456, 4-[3-Fluoro-4-((3S)-methyl-1,1-dioxo-6-phenyl-[1,2]thiazinan-2-ylmethyl)-phenylcarbamoyl]-piperidine-1-carboxylic acid ethyl ester] it was 148 nM. In the case of `CC(=O)N1CCC(C(=O)Nc2ccc(CN3[C@@H](C)CCC(c4ccccc4)S3(=O)=O)c(F)c2)CC1` (stereo partly drawn) [Example 457, 1-Acetyl-piperidine-4-carboxylic acid [3-fluoro-4-((3S)-methyl-1,1-dioxo-6-phenyl-[1,2]thiazinan-2-ylmethyl)-phenyl]-amide], the IC50 came out at 437 nM. Under `C[C@H]1CCC(c2ccccc2)S(=O)(=O)N1Cc1ccc(NC(=O)C2CN(S(C)(=O)=O)C2)cc1F` (stereo partly drawn) [Example 458, 1-Methanesulfonyl-azetidine-3-carboxylic acid [3-fluoro-4-((3S)-methyl-1,1-dioxo-6-phenyl-[1,2]thiazinan-2-ylmethyl)-phenyl]-amide] stands 98 nM; under `C[C@H]1CCC(c2ccccc2)S(=O)(=O)N1Cc1ccc(NC(=O)C2CCN(S(C)(=O)=O)CC2)cc1F` (stereo partly drawn) [Example 459, 1-Methanesulfonyl-piperidine-4-carboxylic acid [3-fluoro-4-((3S)-methyl-1,1-dioxo-6-phenyl-[1,2]thiazinan-2-ylmethyl)-phenyl]-amide], 74 nM.
